Experimental data taken from patent publication US11191743B2, “Modulators of zinc activated cation channel” (Dignity Health, priority 2016, dated 2021).
Entries after “also recorded” stand apart in the source; their conditions may differ. Where two headings read alike, the source gives them in different places.

Columns and labels:
[1] = test system: iTreg-induced immunosuppression of T cell division; format: cell-based, human
Experimental: Live Treg cells (CD4+CD25^high) and conventional T cells (Tconv cells) (CD4+CD25−) are obtained by immunomagnetic cell isolation kit from human iTreg. Tconv cells are labeled with CFSE (10 uM for 10 min). After washing, the labeled cells are distributed into multiple wells (1×10^5/well) in a round bottom 96-well plate with various numbers (2-fold serial dilutions from 1×10^5/well) of Treg cells in each well. The mixed cells (Treg and Tconv with different ratios) are co-cultured for 72 h in the presence of anti-CD3/CD28-coated sulfate latex beads. The intensity of CFSE fluorescence that declines upon division of the labeled cells is measured by flow cytometry.
As disclosed throughout the disclosure, and specifically in FIG. 7, Zinc and/or d-tubocurarine has an influence on iTreg suppression function. CFSE Immunosuppression Assay uses a cell permeable reactive fluorescent dye, CFSE. After entering cells, CFSE interacts with intracellular proteins, and permanently stain the cell. The fluorescence intensity will decrease along with the T cell division.

ZACN [2] = biological target: T1, ZACN (Homo sapiens, UniProt Q401N2); design: host or cells: HEK cells (exogenous expression); conditions: cited from earlier work
T1 sequence (Q401N2 26-412): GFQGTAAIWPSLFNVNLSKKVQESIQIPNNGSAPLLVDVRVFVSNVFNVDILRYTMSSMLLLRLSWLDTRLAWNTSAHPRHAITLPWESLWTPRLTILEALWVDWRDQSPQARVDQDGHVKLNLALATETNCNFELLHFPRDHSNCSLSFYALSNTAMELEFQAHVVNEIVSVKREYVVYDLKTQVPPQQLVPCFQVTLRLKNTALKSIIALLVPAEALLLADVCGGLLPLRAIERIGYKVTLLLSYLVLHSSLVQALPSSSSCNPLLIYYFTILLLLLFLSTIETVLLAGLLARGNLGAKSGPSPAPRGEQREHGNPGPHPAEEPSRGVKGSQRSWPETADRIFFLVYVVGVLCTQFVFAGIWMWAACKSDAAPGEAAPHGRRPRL

GABAA (α1β2γ2) receptor = biological target: T2, GABAA (α1β2γ2) receptor (Homo sapiens, UniProt P14867+P18507+P47870); experiment: Application of NBT to other Cys-loop receptors; format: cell-based; conditions: listed as NBT
T2 construct: expressed in transfected cells
From the text: (§1) To date the only known agonist and antagonist for ZACN are Zn^2+ (agonist) and d-tubocurarine (antagonist).

GABAA (α6β2δ) receptor = biological target: T3, GABAA (α6β2δ) receptor (Homo sapiens, UniProt O14764+P47870+Q16445); experiment: Application of NBT to other Cys-loop receptors; format: cell-based; conditions: listed as NBT
T3 construct: expressed in transfected cells
From the text: as §1

GABAC (ρ1) receptor = biological target: T4, GABAC (ρ1) receptor (Homo sapiens, UniProt P24046); experiment: Application of NBT to other Cys-loop receptors; format: cell-based; conditions: listed as NBT
T4 construct: expressed in transfected cells
From the text: as §1

glycine (α1) receptor = biological target: T5, glycine (α1) receptor (Homo sapiens, UniProt P23415); experiment: Application of NBT to other Cys-loop receptors; format: cell-based; conditions: listed as NBT
T5 construct: expressed in transfected cells
T5 sequence (P23415 29-457): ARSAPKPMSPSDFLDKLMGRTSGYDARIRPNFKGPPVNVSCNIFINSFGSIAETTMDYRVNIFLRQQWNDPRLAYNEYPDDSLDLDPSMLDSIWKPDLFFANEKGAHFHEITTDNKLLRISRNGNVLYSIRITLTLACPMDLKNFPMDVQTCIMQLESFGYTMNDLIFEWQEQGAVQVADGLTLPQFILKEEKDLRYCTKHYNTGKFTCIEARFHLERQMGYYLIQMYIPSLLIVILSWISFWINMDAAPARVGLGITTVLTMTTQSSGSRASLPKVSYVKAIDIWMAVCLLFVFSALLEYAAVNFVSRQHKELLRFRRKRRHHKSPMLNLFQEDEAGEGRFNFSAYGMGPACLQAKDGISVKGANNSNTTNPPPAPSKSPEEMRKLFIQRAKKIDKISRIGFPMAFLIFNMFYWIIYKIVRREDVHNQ
From the text: as §1

nACh (α4β2) receptor = biological target: T6, nACh (α4β2) receptor (Homo sapiens, UniProt P17787+P43681); experiment: Application of NBT to other Cys-loop receptors; format: cell-based; conditions: listed as NBT
T6 construct: expressed in transfected cells
From the text: as §1

nACh (α7) receptor = biological target: T7, nACh (α7) receptor (Homo sapiens, UniProt P36544); experiment: Application of NBT to other Cys-loop receptors; format: cell-based; conditions: listed as NBT
T7 construct: expressed in transfected cells
From the text: as §1

[3] = biological target: T8, serotonin (5HT3A) receptor (Homo sapiens, UniProt P46098); experiment: Application of NBT to other Cys-loop receptors; format: cell-based; conditions: listed as NBT
T8 construct: expressed in transfected cells
T8 sequence (P46098 24-478): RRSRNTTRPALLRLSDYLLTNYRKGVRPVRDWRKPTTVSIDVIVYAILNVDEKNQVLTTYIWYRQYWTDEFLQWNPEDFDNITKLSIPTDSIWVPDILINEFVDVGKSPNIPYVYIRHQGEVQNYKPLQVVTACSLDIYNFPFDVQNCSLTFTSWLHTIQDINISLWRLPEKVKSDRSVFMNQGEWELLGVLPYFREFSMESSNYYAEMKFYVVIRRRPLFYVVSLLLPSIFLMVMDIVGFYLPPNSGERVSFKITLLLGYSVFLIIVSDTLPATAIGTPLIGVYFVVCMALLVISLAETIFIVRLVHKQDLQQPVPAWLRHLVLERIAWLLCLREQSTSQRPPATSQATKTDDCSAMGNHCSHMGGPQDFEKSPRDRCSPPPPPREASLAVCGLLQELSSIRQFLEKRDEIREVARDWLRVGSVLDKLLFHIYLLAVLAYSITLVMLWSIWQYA
From the text: as §1

ZACN [4] = biological target: T1, ZACN; experiment: Two-electrode voltage-clamp, ZACN expressed in Xenopus laevis oocytes: agonist-induced current; format: cell-based; design: host or cells: Xenopus laevis oocytes injected with cRNA (pGEMHE vector, T7 transcript)
From the text: The cDNA encoding wild type, human ZACN was purchased from OpenBiosystems, and cloned into the pGEMHE vector in the T7 orientation. For cRNA synthesis, cDNA templates were PCR amplified using primers that cover the M13 forward and reverse regions and high fidelity Phusion DNA polymerase (New England Biolab, Ipswich, Mass., USA). PCR products were then purified and served as templates for cRNA synthesis. cRNAs were transcribed by T7 RNA polymerase (Promega, Madison, Wis., USA) using standard in vitro transcription protocols. After digestion of the DNA template by RNase-free DNase I, cRNAs were purified and resuspended in diethyl pyrocarbonate (DEPC)-treated water. cRNA integrity was examined on a 1% agarose gel, and cRNA concentration was determined by optical density measurements at 260 nm using an Eppendorf Biophotometer.
Oocytes were harvested from female Xenopus laevis (Xenopus I, Ann Arbor, Mich., USA), using the protocol “Xenopus Care and Use” approved by the Institutional Animal Care and Use Committee of the St. Joseph's Hospital and Medical Center. Stage VI oocytes were selected and incubated at 16° C. before injection. Micropipettes for injection were pulled from borosilicate glass (Drummond Scientific, Broomall, Pa., USA) on a Sutter P87 horizontal puller, and the tips were cut with forceps to ≈40 μm in diameter. cRNAs encoding ZACN was drawn up into the micropipette and injected into oocytes with a Nanoject micro-injection system (Drummond Scientific) in a total volume of ˜60 nl and total cRNA of ˜20 ng for each oocyte.
Two to 5 days after injection, oocytes expressing ZACN were placed in a home-made, small volume chamber and a 16-channel manifold, continuously perfused with oocyte Ringer's solution (OR2), which consisted of (in mM) 92.5 NaCl, 2.5 KCl, 1 CaCl2, 1 MgCl2 and 5 HEPES, pH 7.5. ValveLink 16 computer-controlled perfusion system was used to switch solutions between the OR2 and a test solution. The perfusion chamber was grounded through an agar salt bridge to avoid alterations in junction potential between the Ag/AgCl grounding electrode and solution when solution/drug changes occurred. Oocytes were voltage-clamped at −70 mV to measure agonist-induced currents using an AxoClamp 900A amplifier (Axon Instruments, Foster City, Calif., USA). The current signal was low-pass filtered at 20 Hz with the built-in 4-pole low-pass Bessel filter and digitized at 100 Hz with a Digidata1440a and pClamp 10 software (Molecular Devices).
For each oocyte, concentration-inhibition curves for drug-induced inhibition of zinc-activated current responses or concentration response curves for agonist-induced current of the ZACN were fit to the Hill equation using least squares methods (Prism 6.0, GraphPad Software, Inc., San Diego, Calif., USA) to derive IC50 or EC50 values (the concentration required for inducing a half maximal current), Hill coefficients (the slope factor), and maximum current levels in absolute terms. Current levels in each oocyte were normalized to the maximum current in the absence of the inhibitor, allowing normalized data to be averaged across multiple oocytes and to be fit again to the Hill equation. All data are presented as mean±SEM (standard error).

iTreg cells = experiment: Calcium influx assay in Treg cells; format: cell-based, human
Experimental: Treg cells were loaded with calcium sensitive fluorescent dye X-Rhod-1 AM (cell permeant) (2 μM) for 60 min at room temperature. After wash, the cells were placed onto a glass-bottom petri dish with coated glass surface to allow cells attached to the glass surface. The fluorescence was detected using a microscope-based detection system with a different filter set (excitation filter ET560/40x, T585LPxr dichroic mirror, and ET630/75m emission filter). The fluorescence signal, first in the absence and then in the presence of a ZACN agonist, was low-pass filtered with a signal filter at 1 Hz and digitized with a Digidata1440 digitizer at 10 Hz.

T6 sequence (P43681 29-627): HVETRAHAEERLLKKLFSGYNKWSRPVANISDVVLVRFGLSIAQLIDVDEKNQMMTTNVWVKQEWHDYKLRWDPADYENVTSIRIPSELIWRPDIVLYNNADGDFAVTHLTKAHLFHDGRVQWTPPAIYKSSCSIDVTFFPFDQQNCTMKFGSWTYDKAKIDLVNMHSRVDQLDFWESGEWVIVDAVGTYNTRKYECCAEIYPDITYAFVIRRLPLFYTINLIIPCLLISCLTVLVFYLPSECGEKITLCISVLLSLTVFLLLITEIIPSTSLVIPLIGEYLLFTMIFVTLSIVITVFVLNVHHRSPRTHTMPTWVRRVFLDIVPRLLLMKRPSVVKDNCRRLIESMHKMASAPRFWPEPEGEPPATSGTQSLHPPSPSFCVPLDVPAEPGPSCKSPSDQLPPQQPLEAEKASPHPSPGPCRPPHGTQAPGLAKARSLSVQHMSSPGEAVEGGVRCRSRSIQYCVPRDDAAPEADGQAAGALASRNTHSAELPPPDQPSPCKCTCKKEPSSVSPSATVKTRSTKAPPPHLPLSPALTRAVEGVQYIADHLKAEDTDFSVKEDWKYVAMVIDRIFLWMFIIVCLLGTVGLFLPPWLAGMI
T6 sequence (P17787 26-502): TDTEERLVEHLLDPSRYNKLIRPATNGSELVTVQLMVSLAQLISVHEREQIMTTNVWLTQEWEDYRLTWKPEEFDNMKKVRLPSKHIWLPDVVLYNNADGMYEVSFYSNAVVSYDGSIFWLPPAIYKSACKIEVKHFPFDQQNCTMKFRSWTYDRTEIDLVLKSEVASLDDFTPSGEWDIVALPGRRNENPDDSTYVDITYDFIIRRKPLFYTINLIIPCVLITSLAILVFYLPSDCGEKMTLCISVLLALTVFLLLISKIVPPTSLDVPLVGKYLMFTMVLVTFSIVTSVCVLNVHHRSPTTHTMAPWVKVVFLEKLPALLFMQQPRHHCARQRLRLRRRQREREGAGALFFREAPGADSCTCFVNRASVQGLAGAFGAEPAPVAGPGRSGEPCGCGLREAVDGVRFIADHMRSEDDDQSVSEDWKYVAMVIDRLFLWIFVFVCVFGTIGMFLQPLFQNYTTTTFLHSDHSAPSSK
T2 sequence (P47870 25-512): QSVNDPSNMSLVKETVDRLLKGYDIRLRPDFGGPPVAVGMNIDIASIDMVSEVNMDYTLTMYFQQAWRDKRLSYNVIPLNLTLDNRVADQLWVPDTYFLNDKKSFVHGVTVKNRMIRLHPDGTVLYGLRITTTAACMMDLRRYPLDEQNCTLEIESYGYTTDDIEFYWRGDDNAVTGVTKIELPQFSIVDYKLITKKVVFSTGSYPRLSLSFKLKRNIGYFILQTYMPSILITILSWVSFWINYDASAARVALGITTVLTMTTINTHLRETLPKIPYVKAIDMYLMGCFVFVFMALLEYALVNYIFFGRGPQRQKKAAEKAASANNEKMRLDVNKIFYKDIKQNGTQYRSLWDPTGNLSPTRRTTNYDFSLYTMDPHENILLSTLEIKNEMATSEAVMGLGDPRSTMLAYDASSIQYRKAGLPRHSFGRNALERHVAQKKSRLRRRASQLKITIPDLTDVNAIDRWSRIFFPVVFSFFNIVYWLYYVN
T2 sequence (P18507 40-475): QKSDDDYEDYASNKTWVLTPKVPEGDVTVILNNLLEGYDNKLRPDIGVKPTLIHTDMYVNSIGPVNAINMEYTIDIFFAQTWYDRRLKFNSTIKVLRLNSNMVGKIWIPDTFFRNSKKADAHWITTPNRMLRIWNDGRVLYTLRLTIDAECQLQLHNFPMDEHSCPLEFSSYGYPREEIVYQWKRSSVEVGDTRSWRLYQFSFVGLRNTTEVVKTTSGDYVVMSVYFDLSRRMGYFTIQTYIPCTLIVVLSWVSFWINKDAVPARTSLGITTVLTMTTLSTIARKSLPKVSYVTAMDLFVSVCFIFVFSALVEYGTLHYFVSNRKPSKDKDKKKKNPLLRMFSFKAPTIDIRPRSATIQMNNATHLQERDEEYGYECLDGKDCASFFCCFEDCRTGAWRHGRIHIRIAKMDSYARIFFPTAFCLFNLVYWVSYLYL
T2 sequence (P14867 28-456): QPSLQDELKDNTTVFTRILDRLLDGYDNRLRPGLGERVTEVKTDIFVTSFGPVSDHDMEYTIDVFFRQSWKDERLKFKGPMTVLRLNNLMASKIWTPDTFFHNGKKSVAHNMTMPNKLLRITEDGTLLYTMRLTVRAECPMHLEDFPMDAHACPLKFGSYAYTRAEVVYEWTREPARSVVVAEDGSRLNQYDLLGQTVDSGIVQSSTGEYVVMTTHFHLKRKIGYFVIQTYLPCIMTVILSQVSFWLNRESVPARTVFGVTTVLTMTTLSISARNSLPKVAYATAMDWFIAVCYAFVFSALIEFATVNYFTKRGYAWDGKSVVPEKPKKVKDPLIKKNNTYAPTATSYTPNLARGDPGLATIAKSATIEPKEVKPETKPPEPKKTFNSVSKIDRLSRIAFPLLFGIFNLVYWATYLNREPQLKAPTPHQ
T7 sequence (P36544 23-502): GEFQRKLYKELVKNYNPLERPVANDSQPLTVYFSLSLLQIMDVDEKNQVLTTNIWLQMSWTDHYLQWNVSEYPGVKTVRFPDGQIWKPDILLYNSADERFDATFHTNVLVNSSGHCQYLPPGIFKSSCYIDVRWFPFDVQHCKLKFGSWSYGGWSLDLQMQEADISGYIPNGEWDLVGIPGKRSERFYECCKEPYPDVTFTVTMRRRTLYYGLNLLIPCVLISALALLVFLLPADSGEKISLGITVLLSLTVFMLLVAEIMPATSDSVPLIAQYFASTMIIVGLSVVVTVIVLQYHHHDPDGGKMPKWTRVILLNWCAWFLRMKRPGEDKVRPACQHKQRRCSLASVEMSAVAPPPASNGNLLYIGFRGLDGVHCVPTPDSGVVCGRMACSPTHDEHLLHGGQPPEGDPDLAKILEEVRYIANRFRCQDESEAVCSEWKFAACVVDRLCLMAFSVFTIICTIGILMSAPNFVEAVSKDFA
T4 sequence (P24046 22-479): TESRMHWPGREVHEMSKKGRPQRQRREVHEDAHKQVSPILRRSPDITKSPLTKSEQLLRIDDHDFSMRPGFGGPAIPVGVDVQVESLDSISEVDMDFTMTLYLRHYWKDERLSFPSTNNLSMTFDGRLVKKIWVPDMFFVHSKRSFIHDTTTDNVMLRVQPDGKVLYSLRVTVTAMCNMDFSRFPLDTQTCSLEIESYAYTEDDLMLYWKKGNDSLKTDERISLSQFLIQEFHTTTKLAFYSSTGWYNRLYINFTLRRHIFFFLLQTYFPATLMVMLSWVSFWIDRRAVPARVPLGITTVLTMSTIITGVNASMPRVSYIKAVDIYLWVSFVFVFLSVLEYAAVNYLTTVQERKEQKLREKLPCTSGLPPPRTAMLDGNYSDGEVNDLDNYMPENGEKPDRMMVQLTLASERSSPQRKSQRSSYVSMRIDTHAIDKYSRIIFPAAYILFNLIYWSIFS
T3 sequence (Q16445 20-453): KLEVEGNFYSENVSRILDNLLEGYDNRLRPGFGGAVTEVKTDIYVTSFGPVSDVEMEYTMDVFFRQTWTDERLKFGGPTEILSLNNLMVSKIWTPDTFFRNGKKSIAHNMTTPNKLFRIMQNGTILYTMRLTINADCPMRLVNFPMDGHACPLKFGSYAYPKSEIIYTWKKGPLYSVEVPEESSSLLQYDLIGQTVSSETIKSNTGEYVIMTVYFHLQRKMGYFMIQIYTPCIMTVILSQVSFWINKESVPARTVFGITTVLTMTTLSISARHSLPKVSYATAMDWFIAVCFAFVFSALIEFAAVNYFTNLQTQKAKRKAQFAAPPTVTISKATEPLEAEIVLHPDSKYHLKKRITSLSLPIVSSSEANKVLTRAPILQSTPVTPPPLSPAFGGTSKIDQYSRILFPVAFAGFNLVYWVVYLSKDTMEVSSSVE
T3 sequence (P47870 25-512 limits assumed): as the sequence (P47870 25-512) above
T3 sequence (O14764 17-452 limits assumed): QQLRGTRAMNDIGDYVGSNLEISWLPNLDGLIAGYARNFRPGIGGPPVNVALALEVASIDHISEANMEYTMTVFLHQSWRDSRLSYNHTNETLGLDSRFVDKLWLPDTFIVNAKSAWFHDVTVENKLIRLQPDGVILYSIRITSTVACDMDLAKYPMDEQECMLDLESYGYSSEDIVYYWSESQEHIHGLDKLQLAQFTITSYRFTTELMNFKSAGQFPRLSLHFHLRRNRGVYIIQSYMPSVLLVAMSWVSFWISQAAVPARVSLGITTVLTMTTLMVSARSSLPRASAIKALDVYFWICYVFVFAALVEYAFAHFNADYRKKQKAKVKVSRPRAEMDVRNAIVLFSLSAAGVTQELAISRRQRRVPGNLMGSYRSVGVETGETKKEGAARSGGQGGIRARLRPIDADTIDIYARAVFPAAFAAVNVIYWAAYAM

COc1cc2c3cc1Oc1cc(ccc1O)C[C@@H]1c4c(cc(OC)c(O)c4Oc4ccc(cc4)C[C@@H]3N(C)CC2)CC[N+]1(C)C [d-tubocurarine]
influence on iTreg suppression function [1]: inhibited the iTreg-induced immunosuppression of T cell division
effect on spontaneous activity of ZACN in HEK cells (ZACN [2]): blocked

COc1cc(-c2ccc(-n3nc(-c4ccccc4)n[n+]3-c3ccc([N+](=O)[O-])cc3)c(OC)c2)ccc1-n1nc(-c2ccccc2)n[n+]1-c1ccc([N+](=O)[O-])cc1 [Nitro Blue Tetrazolium]
response to NBT application (GABAA (α1β2γ2) receptor): elicited no response; also recorded: no agonist or antagonist effect
response to NBT application (GABAA (α6β2δ) receptor): elicited no response; also recorded: no agonist or antagonist effect
response to NBT application (GABAC (ρ1) receptor): elicited no response; also recorded: no agonist or antagonist effect
response to NBT application (glycine (α1) receptor): elicited no response; also recorded: no agonist or antagonist effect
response to NBT application (nACh (α4β2) receptor): elicited no response; also recorded: no agonist or antagonist effect
response to NBT application (nACh (α7) receptor): elicited no response; also recorded: no agonist or antagonist effect
response to NBT application [3]: elicited no response; also recorded: no agonist or antagonist effect
ZACN recovery from activation, compared with ZnCl2 (ZACN [4]): much slower
agonist activity on human ZACN (words) (ZACN [4]): selective agonist

[Cl-].[Cl-].[Zn+2] [ZnCl2, Zinc chloride]
effect on T cell viability ([1]; high concentration, 1 mM): killed T cells
intracellular calcium in iTreg cells (iTreg cells): intracellular calcium increase
EC50 (ZACN [2]; HEK cells, read-out: ZnCl2 EC50 for ZACN expressed in HEK cells): 540 µM
activation of ZACN in HEK cells (ZACN [2]): activated this receptor dose-dependently
ZnCl2 EC50 in Xenopus oocytes relative to HEK cells (fold greater) (ZACN [4]): approximately 3 fold
approximate EC80 Zn2+ concentration for this receptor (ZACN [4]): ~2000 µM
EC50 (ZACN [4]; ZACN expressed in X. laevis oocytes, read-out: EC50 in activating ZACN): 1640 ± 56 µM
EC50 (ZACN [4]; ZACN expressed in X. laevis oocytes, read-out: EC50 on ZACN): 1660 µM
EC50 (ZACN [4]; read-out: approximate EC50 Zn2+ concentration for this receptor): ~500 µM
